Literature values, collected in US20250213580A1, “Improved Thiopurine Formulation and Treatment Methods” (Douglas Pharmaceuticals Ltd, priority 2022, published 2025).
Like-named read-outs stand apart in the source and are kept apart here.

Tested on: spontaneous colitis in a mouse model
Conditions: intra-rectal administration

Compound	effect on colitis (within 14 days, distal colon)	effect on colitis (mid-colon or proximal colon)
S=c1nc[nH]c2nc[nH]c12 [Formulation 6-MP, 3,7-dihydropurine-6-thione]	did not provide any significant improvement in colitis	–
Nc1nc(=S)c2[nH]cnc2[nH]1 [Formulation 6-TG, 2-amino-6,7-dihydro-3H-purine-6-thione]	ameliorated spontaneous colitis	no improvement in colitis
